We go through five compounds from US12344610B2, “APOL1 inhibitors and methods of use” (Maze Therapeutics, Inc., priority 2022, dated 2025).

In general, EC50 refers to the concentration that produces a half-maximal response.

This assay has as its system human immortalized podocytes inducibly expressing APOL1 G2. Nature of the assay: APOL1 G2 podocyte cell rescue assay (Example B4). Type of assay: cell-based. To be noted: Homo sapiens, differentiated human podocytes, doxycycline-induced APOL1 G2, CellTiter-Glo; geometric mean of at least 2 runs; † = single run. An outline of the steps:
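Differentiated hTERT-immortalized podocytes (clone D10) with doxycycline-inducible C-terminally HiBiT-tagged APOL1 G2, 6,000 cells/well, treated with doxycycline plus 8-point 3-fold compound series (0.4% DMSO) for 95 h at 37 °C. Viability by CellTiter-Glo luminescence; EC50 as geometric mean of ≥2 runs, each in duplicate.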
On the technique in general: Cellular ATP, detected with luciferase, serves as a proxy for viable cell number.
As to `CC1(O)CN(c2ncc(OCCN3CCC4(CC3)C(=O)Nc3ccc(Cl)cc34)cn2)C1` [Compound 300, 5-chloro-1′-(2-{[2-(3-hydroxy-3-methylazetidin-1-yl)pyrimidin-5-yl]oxy}ethyl)-1,2-dihydrospiro[indole-3,4′-piperidin]-2-one], the response was half-maximal at 33.3 nM (EC50).
The same measure for `O=C1Nc2ccc(Cl)cc2C12CCN(CCOc1cnc(N3CC(O)C3)nc1)CC2` [Compound 301, 5-chloro-1′-(2-{[2-(3-hydroxyazetidin-1-yl)pyrimidin-5-yl]oxy}ethyl)-1,2-dihydrospiro[indole-3,4′-piperidin]-2-one]: 66.9 nM.
For `CC(C)(O)c1ncc(OCCN2CCC3(CC2)C(=O)Nc2ccc(Cl)cc23)cn1` [Compound 305, 5-chloro-1′-(2-{[2-(2-hydroxypropan-2-yl)pyrimidin-5-yl]oxy}ethyl)-1,2-dihydrospiro[indole-3,4′-piperidin]-2-one], the EC50 is 15 nM.
For `CC1(O)CN(c2nccc3cc(OCCN4CCC5(CC4)C(=O)Nc4ccc(Cl)cc45)cnc23)C1` [Compound 306, 5-chloro-1′-(2-{[8-(3-hydroxy-3-methylazetidin-1-yl)-1,7-naphthyridin-3-yl]oxy}ethyl)-1,2-dihydrospiro[indole-3,4′-piperidin]-2-one] the value was 1.94 nM; for `O=C1Nc2ccc(Cl)cc2C12CCN(CCOc1cnc3c(N4CC(O)C4)nccc3c1)CC2` [Compound 314, 5-chloro-1′-(2-{[8-(3-hydroxyazetidin-1-yl)-1,7-naphthyridin-3-yl]oxy}ethyl)-1,2-dihydrospiro[indole-3,4′-piperidin]-2-one], 4.57 nM.
